Measured values taken from patent US12359236B2, “Production of 2-hydroxyacyl-CoAs and derivatives thereof” (Mojia Biotech Pte. Ltd., priority 2019, dated 2025).

B1: OfOxc: oxalyl-CoA decarboxylase from Oxalobacter formigenes (protein, UniProt P40149 1-568, looked up)
Oxalyl-CoA decarboxylase: MSNDDNVELTDGFHVLIDALKMNDIDTMYGVVGIPITNLARMWQDDGQRFYSFRHEQHAGYAASIAGYIEGKPGVCLTVSAPGFLNGVTSLAHATTNCFPMILLSGSSEREIVDLQQGDYEEMDQMNVARPHCKASFRINSIKDIPIGIARAVRTAVSGRPGGVYVDLPAKLFGQTISVEEANKLLFKPIDPAPAQIPAEDAIARAADLIKNAKRPVIMLGKGAAYAQCDDEIRALVEETGIPFLPMGMAKGLLPDNHPQSAAATRAFALAQCDVCVLIGARLNWLMQHGKGKTWGDELKKYVQIDIQANEMDSNQPIAAPVVGDIKSAVSLLRKALKGAPKADAEWTGALKAKVDGNKAKLAGKMTAETPSGMMNYSNSLGVVRDFMLANPDISLVNEGANALDNTRMIVDMLKPRKRLDSGTWGVMGIGMGYCVAAAAVTGKPVIAVEGDSAFGFSGMELETICRYNLPVTVIIMNNGGIYKGNEADPQPGVISCTRLTRGRYDMMMEAFGGKGYVANTPAELKAALEEAVASGKPCLINAMIDPDAGVESGRIKSLNVVSKVGKK
B2: FucO: E. coli 1,2-diol oxidoreductase, added as cell extract (protein, UniProt P0A9S1 1-382, looked up)
Lactaldehyde reductase: MANRMILNETAWFGRGAVGALTDEVKRRGYQKALIVTDKTLVQCGVVAKVTDKMDAAGLAWAIYDGVVPNPTITVVKEGLGVFQNSGADYLIAIGGGSPQDTCKAIGIISNNPEFADVRSLEGLSPTNKPSVPILAIPTTAGTAAEVTINYVITDEEKRRKFVCVDPHDIPQVAFIDADMMDGMPPALKAATGVDALTHAIEGYITRGAWALTDALHIKAIEIIAGALRGSVAGDKDAGEEMALGQYVAGMGFSNVGLGLVHGMAHPLGAFYNTPHGVANAILLPHVMRYNADFTGEKYRDIARVMGVKVEGMSLEEARNAAVEAVFALNRDVGIPPHLRDVGVRKEDIPALAQAALDDVCTGGNPREATLEDIVELYHTAW
modifications: cell extract
notes: E. coli 1,2-diol oxidoreductase, added as cell extract

Key:
Assay type in all cases: biochemical
formaldehyde = experiment: Cell-free prototyping of one carbon bioconversion pathway with E. coli cell extracts; conditions: for performance of enzyme variant in cell-free glycolic acid pathway: mixed extracts of HACL and ACR variants, formaldehyde as sole carbon source
Procedure: Cell-free reactions for pathway prototyping contained 50 mM KPi pH 7.4, 4 mM MgCl2, 0.1 mM TPP, 2.5 mM CoASH, 5 mM NAD^+, and 50 mM formaldehyde. For time course experiments, 0.1 mM coenzyme B12 was added. Individual cell extract loading was around 4.4 g/L protein (⅛ of the reaction volume), and the amount of protein added to each reaction was normalized with BL21(DE3) extract to ˜26 g/L protein (¾ of the reaction volume). Reactions were incubated at room temperature for one hour unless otherwise specified. ¼ of the reaction volume of saturated ammonium sulfate solution acidified with 1% sulfuric acid was added to terminate the reactions. Samples were centrifuged at 20817×g for 15 minutes and the supernatant analyzed by HPLC or GC-MS as described below. For isotope labeling experiments, 13C formaldehyde (Cambridge Isotope Laboratories, Tewksbury, MA) was used.
We combined extracts of E. coli, prepared as described in the previous example(s), expressing variants of HACL and ACR to rapidly screen for the best performing combinations. […] The combination of LmACR and RuHACL enabled the production of 6.2±0.6 mM glycolic acid in 1 hr. The use of 13C-labeled formaldehyde confirmed that the observed glycolic acid was derived from the C1 substrate, judging by the +2 shift in m/z of the [M-15]^+ ion (FIG. 13C).
Quantification of product and substrate concentrations (formic acid, formaldehyde, glycolic acid, ethylene glycol, ethanol, acetic acid) were determined via HPLC using a Shimadzu Prominence SIL 20 system (Shimadzu Scientific Instruments, Inc., Columbia, MD) equipped with a refractive index detector and an HPX-87H organic acid column (Bio-Rad, Hercules, CA) with operating conditions to optimize peak separation (0.3 ml/min flowrate, 30 mM H2SO4 mobile phase, column temperature 42° C.). Compound identification and analysis was performed by GC-MS using an Agilent 7890B Series Custom Gas Chromatography system equipped with a 5977B Inert Plus Mass Selective Detector Turbo EI Bundle (for identification) and an Agilent HP-5-ms capillary column (0.25 mm internal diameter, 0.25 μm film thickness, 30 m length).

[1] = molecular target: Rhodospirillales bacterium URHD0017 2-hydroxyacyl-CoA lyase (RuHACL), wild type, UniProt: A0A1H8YFL8; experiment: Kinetics of RuHACL-catalyzed condensation (ligation) of acetone with formyl-CoA; conditions: 0.5 μM purified RuHACL, 1 mM formyl-CoA, acetone varied, 50 mM KPi pH 7.4, 2.5 mM MgCl2, 0.1 mM TPP, room temperature, 1 min; Michaelis-Menten fit
Procedure: 0.5 μM purified RuHACL was incubated with 1 mM formyl-CoA in a reaction mixture also containing 50 mM KPi pH 7.4, 2.5 mM MgCl2, and 0.1 mM TPP. The concentration of acetone was varied, and room temperature reactions were carried out for 1 min. 40 μL samples were quenched by addition of 10 μL 0.5 M NaOH and placed on ice. 12.5 μL of a saturated ammonium sulfate solution acidified with 1% sulfuric acid was added and the samples were analyzed by HPLC for the determination of the initial reaction rates after centrifugation at 20817×g for 15 minutes. […] The apparent kcat of RuHACL on acetone was 2.7±0.8 s^−1 while the KM was 1.57±0.68 M, corresponding to a catalytic efficiency of 1.7±0.9 s^−1 M^−1.

[2] = test system: Rhodospirillales bacterium URHD0017 2-hydroxyacyl-CoA lyase (RuHACL) variant G390N (RuHACL^G390N); experiment: Kinetics of the C1 condensation reaction of the G390N RuHACL mutant on formyl-CoA and formaldehyde; conditions: in vitro, formyl-CoA and formaldehyde as substrates

Molecule | performance of enzyme variant in cell-free glycolic acid pathway (formaldehyde) | KM of the mutant compared to the wild type [2] | kcat of the mutant compared to the wild type [2] | other results
HsHACL1: 2-hydroxyacyl-CoA lyase HACL1 from Homo sapiens | enabling product synthesis | – | – | –
CC(C)=O [acetone] | – | – | – | apparent kcat on acetone [1]: 2.7 ± 0.8 s⁻¹
CC(C)(COP(=O)(O)OP(=O)(O)OC[C@H]1O[C@@H](n2cnc3c(N)ncnc32)[C@H](O)[C@@H]1OP(=O)(O)O)[C@@H](O)C(=O)NCCC(=O)NCCSC=O [formyl-CoA] | – | no significant difference | no significant difference | –
C=O [formaldehyde] | – | no significant difference | no significant difference | –
B1 | capable of catalyzing the pathway | – | – | –
B2 | – | – | – | ethylene glycol synthesis (formaldehyde; extract added to LmACR+RuHACL pathway): 2.73 ± 0.03 mM; fold increase of ethylene glycol (formaldehyde; from 1.37±0.1 mM to 2.73±0.03 mM): 2 fold
